Where a SMILES comes first, the peptide text is derived from it. [ ]: non-standard residue; d: D form. dPhe(4-Cl) = N[C@H](Cc1ccc(Cl)cc1)C(=O)O; d2Nal = N[C@H](Cc1ccc2ccccc2c1)C(=O)O; dCit = NC(=O)NCCC[C@@H](N)C(=O)O; d3Pal = N[C@H](Cc1cccnc1)C(=O)O
Tested on: patients undergoing COS/ART
Assay: Phase II clinical trial of Cetrorelix in controlled ovarian stimulation/superovulation for assisted reproduction (COS/ART)
Assay type: in vivo, human
Settings: for premature LH surge: s.c., patients undergoing COS/ART
Procedure: The results of a phase II clinical trial are shown in Table I. A total of 235 patients were treated. […] During multiple dosing, the mean days of Cetrorelix application is 6 days. 25 babies were born by the end of May 1996 (7 following multiple doses; 18 following single/dual doses). […] [table] 238 patients were treated with Cetrorelix by subcutaneous injection of Cetrorelix […]-Lyophilisat. 134 patients were treated with multiple doses and 104 patients with single or dual doses. The multiple doses are 0.25 mg/day or higher. The single dose was 3 mg or higher. […] Multiple doses were applied for 3 to a maximum of 10 days dependent on follicular development.

[1] = multiple dose, dose/day, phase II dose finding

CC(=O)N[C@H](Cc1ccc2ccccc2c1)C(=O)N[C@H](Cc1ccc(Cl)cc1)C(=O)N[C@H](Cc1cccnc1)C(=O)N[C@@H](CO)C(=O)N[C@@H](Cc1ccc(O)cc1)C(=O)N[C@H](CCCNC(N)=O)C(=O)N[C@@H](CC(C)C)C(=O)N[C@@H](CCCNC(=N)N)C(=O)N1CCC[C@H]1C(=O)N[C@H](C)C(N)=O [Cetrorelix] (Ac-[d2Nal][dPhe(4-Cl)][d3Pal]SY[dCit]LRP[dA]-NH2)
premature LH surge (FIG. 1, time variation of hormonal levels) (FIG. 1): absolute prevention of any premature LH surge
pregnancies obtained (number) (all phase II patients, both regimens): 71
babies born (number) (by the end of May 1996, all patients): 25
babies born (number) (by the end of May 1996, following multiple doses): 7
babies born (number) (by the end of May 1996, following single/dual doses): 18
babies born (number) (following multiple doses): 15
babies born (number) (following single/dual doses): 29
pregnancies obtained (number) (multiple dose regimen, of 134 patients): 38
minimal effective dose [1]: 0.25 min. effect. dose mg
no effect dose [1]: 0.10 no effect. dose mg
premature LH surge (multiple doses of 0.25 mg/day or higher): No premature LH surge
premature LH surge (single dose of 3 mg or higher): No premature LH surge
duration of effect to prevent a premature LH surge (single dose regimen (one single injection of 3 mg)): up to 6.5 days
pregnancies obtained (number) (single/dual dosage regimen, of 104 patients): 33

Reference: US9107871B2, “LHRH—antagonists in the treatment of fertility disorders” (ZENTARIS IVP GMBH, priority 1996, dated 2015)
